Several values for one entry are separate records, joined by “and”; a condition that tells them apart may be missing. Equal values may be shown once. Read-outs that look alike come from different tables or passages of the source.
Key:
[1] = In vitro skin permeation assessment of dutasteride (Franz cell); type: in vitro ADME; conditions: 1-24 hours, human epidermis
Protocol: To investigate the impact of the siliconic components in dutasteride-loaded formulations, in vitro tests were conducted to measure the permeation through and retention into skin epidermis of a 1% dutasteride-loaded silicone gel formulation made according to the process of Example 2. As a comparison, a gel spray of dutasteride without silicone (PEG-8 Dimethicone or Poly(methylsilsesquioxane)) was also prepared. An original Franz-type diffusion cell system was modified to accommodate widened vertical columns and removal of the bowl shape. The diffusion area was 0.636 cm^2 with a receiver capacity of approximately 3.0 mL. The receiver volume for each cell was individually calibrated.
Human epidermis samples were prepared according to standard protocols. The samples were obtained from abdominal skin of two 30-50 year old Eurasiatic donors. The samples were used as a membrane between the two chambers in the Franz cells. […]
Before being mounted on the Franz cell, each epidermal sheet was visually inspected to avoid any possible defects. Additionally, the electrical resistance of isolated epidermis was measured to ensure the integrity of the barrier membrane. […]
The prepared Franz cells were stirred continuously using a magnetic stir bar at a temperature of 37° C. […] After standing for 24 hours, the supernatant was centrifuged at 3000 rpm for 10 minutes at 23° C. and analyzed by HPLC. […]

[2] = experimental; cited from earlier work
[3] = cited from earlier work
[4] = in vivo; cited from earlier work
serum DHT = conditions: cited from earlier work; for reduction of serum DHT levels: oral administration / oral formulations
[5] = after oral administration; cited from earlier work

Which “dutasteride in the receiver compartment” value [1] does the source give for `C[C@]12C=CC(=O)N[C@@H]1CC[C@@H]1[C@@H]2CC[C@]2(C)[C@@H](C(=O)Nc3cc(C(F)(F)F)ccc3C(F)(F)F)CC[C@@H]12` [dutasteride, Dutasteride] here?
The value was “never detected”.

And the logP [2]?
The logP was 6.8.

And the plasma protein binding [3]?
The plasma protein binding was 99%.

And the volume of distribution [4]?
Its volume of distribution is 300 to 500 L.

What about the “suppression of DHT production” value (serum DHT; after sustained oral administration) of the same molecule?
Its value is “up to 99%”.

For `CC(C)(C)NC(=O)[C@H]1CC[C@H]2[C@@H]3CC[C@H]4NC(=O)C=C[C@]4(C)[C@H]3CC[C@]12C` [finasteride, Finasteride], which logP [2] is on record?
Its logP is 3.03.

And the volume of distribution [4]?
The volume of distribution was 44 to 96 L.

And the “reduction of serum DHT levels” value (serum DHT)?
The value was 60 to 70% and 60-70%.

What about the “reduction of serum DHT levels” value (serum DHT; listed as Finasteride) of the same molecule?
The value was 65-70%.

What about the “systemic clearance (CL)” value [5] of the same molecule?
The value was 165 mL/min.

Reference: patent publication US20230181430A1, “TOPICAL FORMULATIONS COMPRISING DUTASTERIDE FOR TREATING DERMATOLOGICAL DISORDERS INCLUDING MALE PATTERN BALDNESS” (XYON Health Inc., priority 2020, published 2023)
